Data as given in patent US7812042B2, “Pharmaceutical compositions and therapeutic applications for the use of a novel vitamin B12 derivative, N-acetyl-L-cysteinylcobalamin” (priority 2006, dated 2010).
Values joined by “and” are separate entries in the source; they are usually repeats but may differ in a detail not shown here. Equal values may be shown once.

Tests used:
SK-HEP-1 cells [1] = experiment: NACCbl protection from homocysteine with Hsp32/Hsp70 inhibited by Sn(IX) protoporphyrin, quercitin or siRNA (MTS assay); assay type: cell-based, Human; conditions: for cell viability (MTS), raw readings (FIG. 11): NACCbl 30 μM pre-treatment two hours with/without Sn(IX)PP, quercetin, replicates 1-6
Excerpt: siRNAs for human HO-1 were synthesised in 2′-deprotected, duplexed, desalted and purified form by Dharmacon Research Inc., published sequences from Zhang et al., (Zhang, Shan et al. 2004). Human Hsp70 primers were from proprietary sequences, and all control non-targeting primer sequences were also synthesised by Dharmacon Research Inc.
Transfection was optimised using a standard siControl Tox protocol. All transfection experiments included non-targeted siRNA.
Cells were trypsinized and plated into 12- or 96-well plates at cell density of 2×10^5, then incubated for 24 hours until adherent. Complexed siRNA and transfection agent at 100 nm was added directly to each experimental well. Plates were incubated at 37° C. for 32.5 hours for mRNA gene analysis experiments or 72 hours for protein analysis by Western Blot.
Complexed siRNA and transfection agent was added to each well of either 12- or 96-well plates. Cells were then trypsinized and added directly into each test well at cell density of 2×10^5. Plates were incubated at 37° C. for 32.5 hours for mRNA gene analysis experiments or 72 hours for protein analysis by Western Blot.
Hsp32 was inhibited using either Sn (IX) protoporhyrin or using an siRNA which specifically knocks out Hsp32. Hsp70 was inhibited using quercitin or using an siRNA which specifically knocks out Hsp70. In addition, two methods were used to inhibit both Hsp32 and Hsp70: chemically Sn (IX) protoporphyrin plus quercitin was used; and then, directly, a combination of the siRNA for both genes was used simultaneously.

Jurkat (T-cells) = experiment: Survival of Jurkat cells at variable concentration of Hcy; assay type: cell-based; conditions: NACCbl 30 μM, NAC 75 μM, CNCbl 15 μM, folate 30 μM; especially at higher homocysteine concentrations
Protocol: Additional cell studies were conducted using Jurkat (T-cells) and U937 (monocyte) cell lines. These experiments confirmed that other cell types are killed by homocysteine, although these cell lines are not as sensitive as the SK-HEP-1 cell line discussed in the experiments above and are thus more resistant to homocysteine. Cells were exposed to NACCbl 30 μM, NAC 75 μM, CNCbl 15 μM, and folate 30 μM. […] In these Figures, the monocytes are N=6 and concentrations are as follows: NACCbl 30 μM, NAC 75 μM, CNCbl 15 μM, Folate 30 μM

SK-HEP-1 cells [2] = experiment: Effect of high concentrations of NACCbl and GSCbl on SK-HEP-1 cells (MTS assay); assay type: cell-based, Human; parameters: cell viability (MTS), raw readings (FIG. 13): reference not given here; conditions: 24 hours; for cell viability (MTS), raw readings (FIG. 13): 3 replicates
SK-HEP-1 cells [3] = experiment: Protection of endothelial cells from homocysteine-induced cell death (MTS assay, absorbance at 490 nm; includes comparison of NACCbl, NAC, cyanocobalamin+NAC, free thiols, other cobalamins, folate); assay type: cell-based, Human
Protocol: The effect of a constant concentration of NACCbl and GSCbl to protect cells against variable concentrations of homocysteine was assessed. […] Cell viability was determined by MTS® assay. Data shown in FIG. 4 are representative of means ±SE of 6 independent samples. FIG. 4 illustrates that NACCbl (▪) and GSCbl (▴) protect endothelial cells from the effect of homocysteine. […] Cell viability was determined by MTS® assay. […] There was a decrease in protection as homocysteine concentration increased, but there was still ˜60% survival at 50 μM homocysteine.
The data was normalized (log 2 and log 10) as shown in FIGS. 16 and 17 and Tables 16 and 17, respectively, below.

Question: How did the “cell viability (MTS), raw readings (FIG. 11)” value (“cell viability … (FIG. 11)” for short) (SK-HEP-1 cells [1]; Hcy 0) turn out when CC(=O)NC(C[S-])C(=O)O.CC1=C2N=C(C=C3N=C(C(C)=C4[N-]C(C(CC(N)=O)C4(C)CCC(=O)NCC(C)OP(=O)([O-])OC4C(CO)OC(n5cnc6cc(C)c(C)cc65)C4O)C4(C)N=C1C(CCC(N)=O)C4(C)CC(N)=O)C(CCC(N)=O)C3(C)C)C(CCC(N)=O)C2(C)CC(N)=O.[Co+3] [NACCbl, N-acetyl-L-cysteinylcobalamin] was run?
Answer: 2.885 and 2.698 and 2.821 and 2.771 and 2.691 and 2.7

Question: What about the “cell viability … (FIG. 11)” value (SK-HEP-1 cells [1]; Hcy 1.78 (μM) two hours, where named) of the same molecule?
Answer: 2.647 and 2.551 and 2.789 and 2.89 and 2.549 and 2.611

Question: What about the “cell viability … (FIG. 11)” value (SK-HEP-1 cells [1]; Hcy 3.125 (μM) two hours, where named) of the same molecule?
Answer: 2.453 and 2.338 and 2.36 and 2.317 and 2.418 and 2.535

Question: What about the “cell viability … (FIG. 11)” value (SK-HEP-1 cells [1]; Hcy 6.25 (μM) two hours, where named) of the same molecule?
Answer: 2.41 and 2.4 and 2.322 and 2.201 and 2.115 and 2.187

Question: What about the “cell viability … (FIG. 11)” value (SK-HEP-1 cells [1]; Hcy 12.5 (μM) two hours, where named) of the same molecule?
Answer: 2.21 and 2.11 and 2.045 and 2.065 and 2.101 and 2.324

Question: And the “cell viability … (FIG. 11)” value (SK-HEP-1 cells [1]; Hcy 25 (μM) two hours, where named)?
Answer: 2.1 and 2.19 and 1.879 and 1.937 and 1.779 and 1.837

Question: What about the “cell viability … (FIG. 11)” value (SK-HEP-1 cells [1]; Hcy 50 (μM) two hours, where named) of the same molecule?
Answer: 1.678 and 1.832 and 1.881 and 1.73 and 1.74 and 1.855

Question: What about the “cell viability … (FIG. 11)” value (SK-HEP-1 cells [1]; Hcy 100 (μM) two hours, where named) of the same molecule?
Answer: 1.678 and 1.592 and 1.694 and 1.773 and 1.732 and 1.639

Question: What about the “cell viability … (FIG. 11)” value (SK-HEP-1 cells [1]; Hcy 200 (μM) two hours, where named) of the same molecule?
Answer: 1.378 and 1.167 and 1.33 and 1.456 and 1.491 and 1.537

Question: And the “effect of inhibition of both Hsp32 and Hsp70 together on protection by NACCbl” value (SK-HEP-1 cells [1]; both methods (chemically and directly), NACCbl 30 μM)?
Answer: totally removed protection

Question: What about the “protection of Jurkat cells from death by homocysteine, comparison” value (Jurkat (T-cells)) of the same molecule?
Answer: more effective at protecting these cells from death than NAC, CN Cbl or folate

Question: And the survival (SK-HEP-1 cells [2]; 10 mM)?
Answer: over 60%

Question: What about the “cell viability (MTS), raw readings (FIG. 13)” value (“cell viability … (FIG. 13)” for short) (SK-HEP-1 cells [2]; compound conc. 0.61 (μM scale)) of the same molecule?
Answer: 2.572 and 2.498 and 2.473

Question: And the “cell viability … (FIG. 13)” value (SK-HEP-1 cells [2]; compound conc. 1.22 (μM scale))?
Answer: 2.546 and 2.524 and 2.538

Question: What about the “cell viability … (FIG. 13)” value (SK-HEP-1 cells [2]; compound conc. 2.441 (μM scale)) of the same molecule?
Answer: 2.592 and 2.536 and 2.499

Question: And the “cell viability … (FIG. 13)” value (SK-HEP-1 cells [2]; compound conc. 4.882 (μM scale))?
Answer: 2.532 and 2.463 and 2.457

Question: And the “cell viability … (FIG. 13)” value (SK-HEP-1 cells [2]; compound conc. 9.765 (μM scale))?
Answer: 2.505 and 2.474 and 2.514

Question: What about the “cell viability … (FIG. 13)” value (SK-HEP-1 cells [2]; compound conc. 19.531 (μM scale)) of the same molecule?
Answer: 2.485 and 2.466 and 2.502

Question: What about the “cell viability … (FIG. 13)” value (SK-HEP-1 cells [2]; compound conc. 39.062 (μM scale)) of the same molecule?
Answer: 2.503 and 2.474 and 2.453

Question: And the “cell viability … (FIG. 13)” value (SK-HEP-1 cells [2]; compound conc. 78.125 (μM scale))?
Answer: 2.521 and 2.488 and 2.475

Question: What about the “cell viability … (FIG. 13)” value (SK-HEP-1 cells [2]; compound conc. 156.25 (μM scale)) of the same molecule?
Answer: 2.484 and 2.42 and 2.492

Question: What about the “cell viability … (FIG. 13)” value (SK-HEP-1 cells [2]; compound conc. 312.5 (μM scale)) of the same molecule?
Answer: 2.409 and 2.301 and 2.437

Question: What about the “cell viability … (FIG. 13)” value (SK-HEP-1 cells [2]; compound conc. 625 (μM scale)) of the same molecule?
Answer: 2.358 and 2.242 and 2.347

Question: What about the “cell viability … (FIG. 13)” value (SK-HEP-1 cells [2]; compound conc. 1250 (μM scale)) of the same molecule?
Answer: 2.2 and 2.055 and 2.3

Question: What about the “cell viability … (FIG. 13)” value (SK-HEP-1 cells [2]; compound conc. 2500 (μM scale)) of the same molecule?
Answer: 1.989 and 1.891 and 2.085

Question: What about the “cell viability … (FIG. 13)” value (SK-HEP-1 cells [2]; compound conc. 5000 (μM scale)) of the same molecule?
Answer: 2.081 and 2.003 and 2.004

Question: And the “cell viability … (FIG. 13)” value (SK-HEP-1 cells [2]; compound conc. 10000 (= 10 mM))?
Answer: 1.908 and 1.82 and 1.732

Question: And the survival (SK-HEP-1 cells [3]; 30 μM cobalamin pre-incubation two hours, then 50 μM homocysteine two hours)?
Answer: ~60%

Question: What about the “pre-incubation concentration that protected cells from homocysteine-induced cell death” value (SK-HEP-1 cells [3]; 2 hours pre-incubation, then 30 μM homocysteine 24 hours) of the same molecule?
Answer: ≥ 2.0 µM
